Experimental data as given in ChEMBL document CHEMBL2176956, “Application of structure-based drug design and parallel chemistry to identify selective, brain penetrant, in vivo active phosphodiesterase 9A inhibitors” (J Med Chem, 2012).

Assay: Clearance in human liver microsomes
Format: ADME, Microsome
Conditions: read-out: CLH

CLint scaled: 200 mL/min/kg
Compound: O=c1[nH]c(Cc2ccccc2)nc2c1cnn2C1CCCC1
